Source: DBAASP
In brackets after ≈: the same amount, converted by molar mass. Values belong to the molecule of their own block, whether it stands above or below them.

Columns and labels:
Assay in all cases: ≥ marks a high value that may be exact or a test limit, other limits are often not marked, values filed in µg/mL are converted to µM
Escherichia coli TOP 10 = tested on: Escherichia coli TOP 10
[1] = tested on: Escherichia coli ATCC 25922
[2] = tested on: Pseudomonas aeruginosa ATCC 27853
[3] = tested on: Staphylococcus aureus ATCC 12600
[4] = tested on: Streptococcus mutans ATCC 25175
[5] = tested on: Pseudomonas aeruginosa KCTC 1637
[6] = tested on: Salmonella typhimurium KCTC 1926
[7] = tested on: Bacillus subtilis KCTC 1918
[8] = tested on: Candida albicans TIMM 1768
[9] = tested on: Staphylococcus aureus KCTC 1621
[10] = tested on: Trichosporon beigelii KCTC 7707
[11] = tested on: Escherichia coli KCTC 1682
[12] = tested on: Klebsiella pneumoniae ATCC 10031
[13] = tested on: Pseudomonas aeruginosa ATCC 13388
[14] = tested on: Salmonella enterica subsp. enterica serovar Typhimurium ATCC 14028
[15] = tested on: Staphylococcus aureus ATCC 6538
[16] = tested on: Escherichia coli ATCC 11219
[17] = tested on: Candida albicans ATCC 14053
[18] = tested on: Enterococcus faecalis ATCC 29212
[19] = tested on: Staphylococcus aureus ATCC 29213
[20] = tested on: Klebsiella pneumoniae ATCC 13883
Escherichia coli JM109 = tested on: Escherichia coli JM109
[21] = tested on: Bacillus subtilis KCTC 3068
[22] = tested on: Staphylococcus epidermidis KCTC 1917
Escherichia coli D21 = tested on: Escherichia coli D21

SMILES: CC[C@H](C)[C@H](NC(=O)[C@H](C)NC(=O)CNC(=O)[C@H](Cc1ccccc1)NC(=O)[C@H](CC(C)C)NC(=O)CN)C(=O)N[C@@H](C)C(=O)NCC(=O)N[C@@H](Cc1ccccc1)C(=O)N[C@H](C(=O)N[C@@H](CCCCN)C(=O)NCC(=O)NCC(=O)N[C@@H](Cc1c[nH]c2ccccc12)C(=O)N[C@@H](CCC(N)=O)C(=O)NCC(=O)N[C@@H](CCSC)C(=O)N[C@H](C(=O)N[C@@H](CCCCN)C(=O)NCC(N)=O)C(C)C)[C@@H](C)CC [GLFGAIAGFIKGGWQGMVKG]
- MIC [1]: 15.7 µM (≈ 31.3 µg/mL)
- MIC [2]: > 62.7 µM
- MIC [3]: 15.7 µM (≈ 31.3 µg/mL)
- MIC [4]: 11.1 µM (≈ 22.1 µg/mL)

SMILES: CC[C@H](C)[C@H](NC(=O)CN)C(=O)N[C@@H](CCCCN)C(=O)N[C@@H](CC(=O)O)C(=O)N[C@H](C(=O)N[C@@H](CC(C)C)C(=O)N[C@@H](CCCCN)C(=O)N[C@@H](Cc1ccc(O)cc1)C(=O)NCC(=O)N[C@@H](CCCCN)C(=O)N1CCC[C@H]1C(=O)N[C@@H](CO)C(N)=O)[C@@H](C)CC [GIKDILKYGKPS]
- MIC [12]: 10 µM (≈ 13.2 µg/mL)
- MIC [13]: 30 µM (≈ 39.5 µg/mL)
- MIC [14]: 5 µM (≈ 6.59 µg/mL)
- MIC [15]: 15 µM (≈ 19.8 µg/mL)
- MIC [16]: 10 µM (≈ 13.2 µg/mL)

SMILES: CC[C@H](C)[C@H](N)C(=O)N[C@@H](CC(C)C)C(=O)N1CCC[C@H]1C(=O)N[C@@H](Cc1c[nH]c2ccccc12)C(=O)N[C@@H](CCCCN)C(=O)N[C@@H](Cc1c[nH]c2ccccc12)C(=O)N[C@@H](CCCCN)C(=O)N[C@@H](Cc1c[nH]c2ccccc12)C(=O)N[C@@H](Cc1c[nH]c2ccccc12)C(=O)N1CCC[C@H]1C(=O)N[C@@H](Cc1c[nH]c2ccccc12)C(=O)N[C@@H](CCCN=C(N)N)C(=O)N[C@@H](CCCN=C(N)N)C(N)=O [ILPWKWKWWPWRR]
- MIC [5]: 10.3 µM (≈ 20 µg/mL)
- MIC [6]: 5.16 µM (≈ 10 µg/mL)
- MIC (Escherichia coli JM109): 1 µM (≈ 1.94 µg/mL)
- MIC [9]: 2.58 µM (≈ 5 µg/mL)
- MIC [21]: 2.58 µM (≈ 5 µg/mL)
- MIC [22]: 5.16 µM (≈ 10 µg/mL)
- MIC [11]: 5.16 µM (≈ 10 µg/mL)

SMILES: CC[C@H](C)[C@H](NC(=O)CN)C(=O)N[C@@H](C)C(=O)N[C@@H](CC(=O)O)C(=O)N[C@H](C(=O)N[C@@H](CC(C)C)C(=O)N[C@@H](CCCCN)C(=O)N[C@@H](Cc1ccc(O)cc1)C(=O)NCC(=O)N[C@@H](CCCCN)C(=O)N1CCC[C@H]1C(=O)N[C@@H](CO)C(N)=O)[C@@H](C)CC [GIADILKYGKPS]
- MIC [12]: 30 µM (≈ 37.8 µg/mL)
- MIC [13]: 15 µM (≈ 18.9 µg/mL)
- MIC [14]: 10 µM (≈ 12.6 µg/mL)
- MIC [15]: 20 µM (≈ 25.2 µg/mL)
- MIC [16]: ≥ 50 µM

SMILES: CC[C@H](C)[C@H](NC(=O)CNC(C)=O)C(=O)N[C@@H](CCCN=C(N)N)C(=O)N[C@@H](CCCN=C(N)N)C(=O)N[C@H](C(=O)N[C@@H](CC(C)C)C(=O)N[C@@H](CCCCN)C(=O)N[C@@H](Cc1ccc(O)cc1)C(=O)NCC(=O)N[C@@H](CCCCN)C(=O)N[C@@H](CCCN=C(N)N)C(=O)N[C@@H](CO)C(N)=O)[C@@H](C)CC [GIRRILKYGKRS]
- MIC [12]: 5 µM (≈ 7.44 µg/mL)
- MIC [13]: 20 µM (≈ 29.8 µg/mL)
- MIC [14]: 20 µM (≈ 29.8 µg/mL)
- MIC [15]: 2.2 µM (≈ 3.27 µg/mL)
- MIC [16]: 5 µM (≈ 7.44 µg/mL)

Next, values leading:

- MIC (Escherichia coli TOP 10): 22.4 µM (≈ 50 µg/mL)
SMILES: CC[C@H](C)[C@H](N)C(=O)N[C@@H](CCCCN)C(=O)N[C@@H](C)C(=O)N[C@@H](CC(C)C)C(=O)N[C@@H](CC(C)C)C(=O)N[C@@H](C)C(=O)N[C@@H](CC(C)C)C(=O)N1CCC[C@H]1C(=O)N[C@@H](CCCCN)C(=O)N[C@@H](CC(C)C)C(=O)N[C@@H](C)C(=O)N[C@@H](CCCCN)C(=O)N[C@@H](CCCCN)C(=O)N[C@H](C(=O)N[C@@H](C)C(=O)N[C@@H](CCCCN)C(=O)N[C@@H](CCCCN)C(=O)N[C@@H](Cc1ccccc1)C(=O)N[C@@H](CC(C)C)C(=O)N[C@@H](CCCCN)C(N)=O)[C@@H](C)CC [IKALLALPKLAKKIAKKFLK]

- MIC [5]: 12.5 µM (≈ 20.6 µg/mL)
- MIC [6]: 1.56 µM (≈ 2.57 µg/mL)
- MIC [7]: 6.25 µM (≈ 10.3 µg/mL)
- MIC [8]: 25 µM (≈ 41.3 µg/mL)
- MIC [9]: 12.5 µM (≈ 20.6 µg/mL)
- MIC [10]: 25 µM (≈ 41.3 µg/mL)
- MIC [11]: 12.5 µM (≈ 20.6 µg/mL)
SMILES: CC(C)C[C@H](NC(=O)[C@H](CCCCN)NC(=O)[C@H](CCCCN)NC(=O)[C@H](Cc1c[nH]c2ccccc12)NC(=O)[C@@H](N)CCCCN)C(=O)N[C@@H](CC(C)C)C(=O)N[C@@H](CCCCN)C(=O)N[C@@H](CCCCN)C(=O)N1CCC[C@H]1C(=O)N[C@@H](CC(C)C)C(=O)N[C@@H](CC(C)C)C(=O)N[C@@H](CCCCN)C(=O)N[C@@H](CCCCN)C(N)=O [KWKKLLKKPLLKK]

- MIC [1]: 8.36 µM (≈ 22.3 µg/mL)
- MIC [17]: ≥ 133 µM
- MIC [18]: 133 µM (≈ 353 µg/mL)
- MIC [2]: 66.4 µM (≈ 177 µg/mL)
- MIC [19]: 133 µM (≈ 353 µg/mL)
- MIC [20]: ≥ 33 µM
SMILES: CC[C@H](C)[C@H](NC(=O)[C@H](CCCCN)NC(=O)[C@H](CO)NC(=O)[C@H](C)NC(=O)[C@H](Cc1c[nH]c2ccccc12)NC(=O)CN)C(=O)NCC(=O)N[C@@H](CCC(N)=O)C(=O)N[C@H](C(=O)N[C@@H](CC(C)C)C(=O)NCC(=O)N[C@@H](CCCCN)C(=O)N[C@H](C(=O)N[C@@H](C)C(=O)N[C@@H](CCCCN)C(=O)N[C@H](C(=O)NCC(=O)N[C@@H](CC(C)C)C(=O)N[C@@H](CCCCN)C(=O)N[C@@H](CCC(=O)O)C(=O)N[C@@H](CC(C)C)C(=O)N[C@H](C(=O)N[C@@H](CCC(N)=O)C(=O)N1CCC[C@H]1C(=O)N[C@@H](CCCCN)C(N)=O)[C@@H](C)CC)C(C)C)[C@@H](C)CC)[C@@H](C)O [GWASKIGQTLGKIAKVGLKELIQPK]

- MIC (Escherichia coli TOP 10): ≥ 36 µM
SMILES: CC[C@H](C)[C@H](NC(=O)[C@H](CO)NC(=O)[C@H](CCCN=C(N)N)NC(=O)[C@@H](NC(=O)[C@H](CS)NC(=O)[C@H](CO)NC(=O)[C@@H]1CCCN1C(=O)[C@H](CC(C)C)NC(=O)[C@H](Cc1ccccc1)NC(=O)[C@H](CCCN=C(N)N)NC(=O)[C@@H](N)CCCCN)C(C)C)C(=O)N[C@@H](CCC(N)=O)C(=O)N[C@@H](CC(N)=O)C(=O)N[C@@H](CC(C)C)C(=O)N[C@@H](CC(=O)O)C(=O)N[C@@H](CC(=O)O)C(=O)N[C@@H](C)C(=O)N[C@@H](CC(C)C)C(=O)N1CCC[C@H]1C(=O)N[C@H](C(=O)N1CCC[C@H]1C(=O)N[C@@H](CCC(=O)O)C(=O)N[C@@H](CCC(=O)O)C(=O)N[C@@H](Cc1ccccc1)C(N)=O)[C@@H](C)O [KRFLPSCVRSIQNLDDALPTPEEF]

- MIC [1]: > 50 µM
- MIC [15]: 35.4 µM (≈ 97.2 µg/mL)
- MIC (Escherichia coli D21): ≥ 50 µM
SMILES: CC[C@H](C)[C@H](NC(=O)[C@H](CCCCN)NC(=O)[C@H](CCCN=C(N)N)NC(=O)[C@@H](NC(=O)[C@H](CC(C)C)NC(=O)[C@H](CCC(N)=O)NC(=O)[C@@H](NC(=O)[C@H](Cc1ccc(O)cc1)NC(=O)[C@H](CCC(N)=O)NC(=O)[C@@H]1CCCN1C(=O)[C@@H](NC(=O)[C@H](CC(C)C)NC(=O)[C@@H](NC(=O)[C@H](Cc1c[nH]c2ccccc12)NC(=O)[C@H](CC(C)C)NC(=O)[C@H](CO)NC(=O)[C@@H]1CCCN1C(=O)[C@H](Cc1cnc[nH]1)NC(=O)[C@@H](N)Cc1ccccc1)C(C)C)[C@@H](C)CC)[C@@H](C)CC)[C@@H](C)CC)C(=O)N[C@@H](CC(C)C)C(=O)N[C@@H](CCCCN)C(=O)N[C@@H](CO)C(=O)NCC(=O)O [FHPSLWVLIPQYIQLIRKILKSG]
